pIC50: −log10 of the molar value.
Key:
[1] = target: Glutamate carboxypeptidase 2 (Homo sapiens, UniProt Q04609); assay: Irreversible inhibition of PSMA (unknown origin)
[2] = Drug uptake in human PC-3 cells with PSMA knockout assessed as increase in fluorescence at 10 uM incubated for 10 mins by DAPI staining based confocal microscopy analysis; assay type: ADME, cell-based; conditions: pc-3, 10 min
LNCaP C4-2B = assay: Anticancer activity against PMSA positive human LNCaP C4-2B cells assessed as reduction in cell viability measured after 72 hrs by celltiter-glo assay; assay type: functional, cell-based; conditions: dose 0.313-20 µM
[3] = Drug uptake in PSMA positive human LNCaP C4-2B cells assessed as increase in fluorescence at 10 uM incubated for 10 mins in presence of CTT1057 by DAPI staining based confocal microscopy analysis; assay type: ADME, cell-based
[4] = Drug uptake in PSMA positive human LNCaP C4-2B cells assessed as increase in fluorescence at 10 uM incubated for 10 mins by DAPI staining based confocal microscopy analysis; assay type: ADME, cell-based
PC-3 = assay: Anticancer activity against human PC-3 cells with PSMA knockout cells assessed as reduction in cell viability measured after 72 hrs by celltiter-glo assay; assay type: functional, cell-based; conditions: dose 0.313-20 µM

Glutamate carboxypeptidase 2, sequence (Q04609 whole entry): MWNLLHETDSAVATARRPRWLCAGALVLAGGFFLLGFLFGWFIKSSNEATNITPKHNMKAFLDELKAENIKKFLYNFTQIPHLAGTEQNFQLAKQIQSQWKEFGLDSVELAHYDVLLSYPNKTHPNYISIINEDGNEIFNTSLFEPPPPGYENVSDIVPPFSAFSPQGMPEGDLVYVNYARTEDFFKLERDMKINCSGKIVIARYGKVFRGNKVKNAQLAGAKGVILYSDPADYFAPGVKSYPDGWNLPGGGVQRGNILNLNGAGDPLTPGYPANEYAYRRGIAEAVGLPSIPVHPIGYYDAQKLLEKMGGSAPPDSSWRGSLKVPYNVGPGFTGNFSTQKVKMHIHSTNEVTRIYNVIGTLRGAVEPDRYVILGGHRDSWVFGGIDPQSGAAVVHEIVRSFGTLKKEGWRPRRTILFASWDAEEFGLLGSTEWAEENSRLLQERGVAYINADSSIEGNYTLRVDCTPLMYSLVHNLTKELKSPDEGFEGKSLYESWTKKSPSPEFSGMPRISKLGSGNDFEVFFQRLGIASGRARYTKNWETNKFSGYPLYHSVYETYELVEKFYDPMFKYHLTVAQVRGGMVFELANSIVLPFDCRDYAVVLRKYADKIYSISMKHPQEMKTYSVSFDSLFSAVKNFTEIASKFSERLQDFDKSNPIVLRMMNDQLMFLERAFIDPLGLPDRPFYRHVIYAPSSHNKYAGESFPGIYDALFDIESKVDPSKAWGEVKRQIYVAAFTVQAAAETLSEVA

pIC50 [1]	Drug uptake [2]	Drug uptake [3]	Drug uptake [4]	SMILES	Activity (LNCaP C4-2B)	Activity (PC-3)
5.00				COc1cccc2c1C(=O)c1c(O)c3c(c(O)c1C2=O)C[C@@](O)(C(=O)CO)C[C@@H]3O[C@H]1C[C@H](N)[C@H](O)[C@H](C)O1 [DOXORUBICIN]		
	Not Active	Not Active	Active	COc1cccc2c1C(=O)c1c(O)c3c(c(O)c1C2=O)C[C@@](O)(C(=O)CO)C[C@@H]3O[C@H]1C[C@H](NC(=O)OCc2ccc(NC(=O)[C@H](CCCNC(N)=O)NC(=O)[C@@H](NC(=O)c3ccc(Cn4nnc5c4-c4ccccc4CN(C(=O)CCCCC(=O)NCCCCCC(=O)N[C@@H](CCC(=O)N[C@@H](CCCOP(=O)(O)N[C@@H](CCC(=O)O)C(=O)O)C(=O)O)C(=O)O)c4ccccc4-5)cc3)C(C)C)cc2)[C@H](O)[C@H](C)O1	Dose-Dependent Effect	Dose-Dependent Effect

Source: ChEMBL document CHEMBL5625272, “A PSMA-targeted doxorubicin small-molecule drug conjugate” (Bioorg Med Chem Lett, 2024)
